Like-named read-outs stand apart in the source and are kept apart here.
Target: wild-type human cardiac sodium channel, hNav1.5 (Homo sapiens, UniProt Q14524)
Experiment: Late INa screening assay (late sodium current, PatchXpress whole cell patch clamp)
Type: cell-based
Conditions: read-out: Late INa % blk

Sequence of wild-type human cardiac sodium channel, hNav1.5 (Q14524 whole entry): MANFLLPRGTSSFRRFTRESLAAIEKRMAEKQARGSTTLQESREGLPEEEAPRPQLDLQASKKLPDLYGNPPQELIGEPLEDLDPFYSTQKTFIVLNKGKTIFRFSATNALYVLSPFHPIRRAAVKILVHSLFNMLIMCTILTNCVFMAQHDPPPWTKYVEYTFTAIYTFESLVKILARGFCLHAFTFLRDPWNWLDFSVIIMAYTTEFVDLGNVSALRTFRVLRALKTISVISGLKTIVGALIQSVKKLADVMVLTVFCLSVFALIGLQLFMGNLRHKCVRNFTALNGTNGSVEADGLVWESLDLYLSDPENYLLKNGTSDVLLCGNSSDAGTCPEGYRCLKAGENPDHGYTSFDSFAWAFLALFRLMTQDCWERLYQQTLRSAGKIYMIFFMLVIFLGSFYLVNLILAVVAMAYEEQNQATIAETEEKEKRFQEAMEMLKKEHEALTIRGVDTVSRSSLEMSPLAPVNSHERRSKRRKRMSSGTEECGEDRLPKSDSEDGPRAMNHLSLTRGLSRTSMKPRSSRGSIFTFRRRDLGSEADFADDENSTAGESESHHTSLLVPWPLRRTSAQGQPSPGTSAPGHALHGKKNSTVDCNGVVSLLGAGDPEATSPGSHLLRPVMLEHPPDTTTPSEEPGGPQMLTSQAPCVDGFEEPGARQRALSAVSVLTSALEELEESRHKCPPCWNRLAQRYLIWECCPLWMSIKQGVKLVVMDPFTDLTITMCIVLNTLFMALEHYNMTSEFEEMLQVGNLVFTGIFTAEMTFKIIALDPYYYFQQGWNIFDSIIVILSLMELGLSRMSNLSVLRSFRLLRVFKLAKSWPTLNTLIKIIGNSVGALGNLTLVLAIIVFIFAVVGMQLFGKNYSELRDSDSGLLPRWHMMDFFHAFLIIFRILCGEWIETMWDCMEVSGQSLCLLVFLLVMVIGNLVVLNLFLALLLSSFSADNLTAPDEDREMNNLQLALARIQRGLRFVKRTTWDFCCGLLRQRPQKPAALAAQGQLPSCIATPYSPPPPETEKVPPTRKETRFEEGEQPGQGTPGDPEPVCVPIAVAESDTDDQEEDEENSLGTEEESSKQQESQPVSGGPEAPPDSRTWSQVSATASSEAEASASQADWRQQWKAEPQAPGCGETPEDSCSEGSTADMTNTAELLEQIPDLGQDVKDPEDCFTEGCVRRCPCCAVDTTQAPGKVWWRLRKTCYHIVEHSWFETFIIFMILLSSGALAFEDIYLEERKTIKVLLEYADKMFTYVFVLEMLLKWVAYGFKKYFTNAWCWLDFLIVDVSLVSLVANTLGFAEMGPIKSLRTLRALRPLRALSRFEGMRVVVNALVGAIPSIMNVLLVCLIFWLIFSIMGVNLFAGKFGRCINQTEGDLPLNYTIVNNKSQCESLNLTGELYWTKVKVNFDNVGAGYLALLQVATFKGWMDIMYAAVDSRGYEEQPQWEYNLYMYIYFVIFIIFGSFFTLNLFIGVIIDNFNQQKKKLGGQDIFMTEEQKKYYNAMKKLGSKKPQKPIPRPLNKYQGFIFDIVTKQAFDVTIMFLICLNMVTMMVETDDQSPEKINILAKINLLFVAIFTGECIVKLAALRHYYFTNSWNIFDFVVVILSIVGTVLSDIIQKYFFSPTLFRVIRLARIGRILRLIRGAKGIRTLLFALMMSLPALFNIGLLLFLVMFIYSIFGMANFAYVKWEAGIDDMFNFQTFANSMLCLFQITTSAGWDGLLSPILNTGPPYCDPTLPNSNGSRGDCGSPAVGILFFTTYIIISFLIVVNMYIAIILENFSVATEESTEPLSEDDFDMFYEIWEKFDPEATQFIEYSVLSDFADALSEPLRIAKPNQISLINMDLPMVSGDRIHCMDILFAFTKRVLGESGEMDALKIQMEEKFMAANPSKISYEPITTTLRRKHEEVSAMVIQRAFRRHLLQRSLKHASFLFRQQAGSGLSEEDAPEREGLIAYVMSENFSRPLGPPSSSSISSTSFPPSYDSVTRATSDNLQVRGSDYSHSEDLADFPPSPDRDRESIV

| Compound | inhibition at 10 µM (compound at 10 μM) [%] | inhibition at 10 µM [%] |
| --- | --- | --- |
| CC1=C(C(=O)OCc2ccccc2)C(c2ccc(N(C)C)cc2)n2nnnc2N1 (centres unmarked) [PT-410, benzyl 7-(4-(dimethylamino)phenyl)-5-methyl-4,7-dihydrotetrazolo[1,5-a]pyrimidine-6-carboxylate] | 11.4 |  |
| COc1ccc(C2C(C(=O)OCc3ccccc3)=C(C)Nc3nnnn32)c(OCc2ccccc2)c1 (centres unmarked) [PT-380, benzyl 7-(2-(benzyloxy)-4-methoxyphenyl)-5-methyl-4,7-dihydrotetrazolo[1,5-a]pyrimidine-6-carboxylate] | 70.9 |  |
| COc1cc(Cl)ccc1COC(=O)C1=C(C)Nc2nnnn2C1c1cccc2ccccc12 (centres unmarked) [PT-304, 4-chloro-2-methoxybenzyl 5-methyl-7-(naphthalen-1-yl)-4,7-dihydrotetrazolo[1,5-a]pyrimidine-6-carboxylate] | 63 |  |
| CC1(C)CC(=O)C2=C(C1)OC(N)=C(C#N)C2c1cccc(C(=O)O)c1 (centres unmarked) [PT-098, 3-(2-amino-3-cyano-7,7-dimethyl-5-oxo-5,6,7,8-tetrahydro-4H-chromen-4-yl)benzoic acid] | -27.9 |  |
| CC1=C(C(=O)N2CCN(c3ccc(Cl)cc3)CC2)C(c2ccsc2)C2=C(CCCC2=O)N1 (centres unmarked) [PT-167, 3-(4-(4-chlorophenyl)piperazine-1-carbonyl)-2-methyl-4-(thiophen-3-yl)-4,6,7,8-tetrahydroquinolin-5(1H)-one] | -10 |  |
| CC1=C(C(=O)OCc2ccccc2)C(c2cccc3ccccc23)c2cn[nH]c2N1 (centres unmarked) [PT-367, benzyl 6-methyl-4-(naphthalen-1-yl)-4,7-dihydro-1H-pyrazolo[3,4-b]pyridine-5-carboxylate] | 16.1 |  |
| COc1ccc(-c2ccccc2C2C(C(=O)OCc3ccccc3)=C(C)Nc3nnnn32)cc1 (centres unmarked) [PT-420, benzyl 7-(4′-methoxybiphenyl-2-yl)-5-methyl-4,7-dihydrotetrazolo[1,5-a]pyrimidine-6-carboxylate] | 75.3 |  |
| CC1=C(C(=O)OCc2ccccc2)C(c2ccccc2-c2ccc(N3CCOCC3)cc2)n2nnnc2N1 (centres unmarked) [PT-360, benzyl 5-methyl-7-(4′-morpholinobiphenyl-2-yl)-4,7-dihydrotetrazolo[1,5-a]pyrimidine-6-carboxylate] | 7.2 |  |
| CCOC(=O)C1=C(C)Nc2ccnn2C1c1ccccc1OCCN(C)C (centres unmarked) [PT-478, ethyl 7-(2-(2-(dimethylamino)ethoxy)phenyl)-5-methyl-4,7-dihydropyrazolo[1,5-a]pyrimidine-6-carboxylate] | 34.3 |  |
| COc1ccc(COC(=O)C2=C(C)NC(C)=C(C(=O)OCc3ccc(OC)c(OC)c3)C2c2ccc3ccccc3c2)cc1OC [PT-130, bis(3,4-dimethoxybenzyl) 2,6-dimethyl-4-(naphthalen-2-yl)-1,4-dihydropyridine-3,5-dicarboxylate] | 15.7 |  |
| CCOC(=O)C1=C(C)Nc2[nH]ncc2C1c1c(Br)sc2ccccc12 (centres unmarked) [PT-447, ethyl 4-(2-bromobenzo[b]thiophen-3-yl)-6-methyl-4,7-dihydro-1H-pyrazolo[3,4-b]pyridine-5-carboxylate] | 77.4 |  |
| CCOC(=O)c1ccc(N2CCN(C(=O)C3=C(C)NC4=C(C(=O)CCC4)C3c3cccc4ccccc34)CC2)cc1 (centres unmarked) [PT-452, ethyl 4-(4-(2-methyl-4-(naphthalen-1-yl)-5-oxo-1,4,5,6,7,8-hexahydroquinoline-3-carbonyl)piperazin-1-yl)benzoate] | 5.9 |  |
| CC1=C(C(=O)OCc2ccccc2)C(c2ccccc2)c2ccccc2N1 (centres unmarked) [PT-321, benzyl 2-methyl-4-phenyl-1,4-dihydroquinoline-3-carboxylate] | 48.3 |  |
| COC(=O)C1=C(C)Nc2nnnn2C1c1c(-c2ccc(C(=O)O)cc2)sc2ccccc12 (centres unmarked) [PT-296, 4-(3-(6-(methoxycarbonyl)-5-methyl-4,7-dihydrotetrazolo[1,5-a]pyrimidin-7-yl)benzo[b]thiophen-2-yl)benzoic acid] | 13.3 |  |
| O=C1OCc2nc3[nH]ncc3c(-c3cccc4ccccc34)c21 [PT-301, 4-(naphthalen-1-yl)-1H-furo[3,4-e]pyrazolo[3,4-b]pyridin-5(7H)-one] | 21.6 |  |
| CCCC1=C(C(=O)OCC)C(c2ccsc2)C2=C(CC(C(C)C)CC2=O)N1 (centres unmarked) [PT-152, ethyl 7-isopropyl-5-oxo-2-propyl-4-(thiophen-3-yl)-1,4,5,6,7,8-hexahydroquinoline-3-carboxylate] | 41.2 |  |
| CCOC(=O)CN1C(C)=C(C(=O)OCc2ccccc2)C(c2cccc3ccccc23)n2nnnc21 (centres unmarked) [PT-331, benzyl 4-(2-ethoxy-2-oxoethyl)-5-methyl-7-(naphthalen-1-yl)-4,7-dihydrotetrazolo[1,5-a]pyrimidine-6-carboxylate] | 29.6 |  |
| CC1=C(C(=O)OCc2ccccc2)C(c2c3ccccc3cc3ccccc23)C2=C(CCCC2=O)N1 (centres unmarked) [PT-334, benzyl 4-(anthracen-9-yl)-2-methyl-5-oxo-1,4,5,6,7,8-hexahydroquinoline-3-carboxylate] | 29.9 |  |
| CC1=C(C(=O)OCC2CC2)C(c2c(-c3ccc(C(=O)O)cc3)sc3ccccc23)n2nnnc2N1 (centres unmarked) [PT-293, 4-(3-(6-((cyclopropylmethoxy)carbonyl)-5-methyl-4,7-dihydrotetrazolo[1,5-a]pyrimidin-7-yl)benzo[b]thiophen-2-yl)benzoic acid] | 7.7 |  |

| Compound | inhibition at 10 µM (compound at 10 μM) [%] | inhibition at 10 µM [%] |
| --- | --- | --- |
| CCOC(=O)C1=C(C)NC2=C(C(=O)c3ccccc32)C1c1cccs1 (centres unmarked) [PT-187, ethyl 2-methyl-5-oxo-4-(thiophen-2-yl)-4,5-dihydro-1H-indeno[1,2-b]pyridine-3-carboxylate] | -2.6 |  |
| CC1=C(C(=O)OCc2ccc(I)cc2)C(c2cccc3ccccc23)n2nnnc2N1 (centres unmarked) [PT-029, 4-iodobenzyl 5-methyl-7-(naphthalen-1-yl)-4,7-dihydrotetrazolo[1,5-a]pyrimidine-6-carboxylate] | 52.1 |  |
| Cc1ccc(-c2n[nH]c3c2C(c2cccc4ccccc24)C2=C(COC2=O)N3)cc1 (centres unmarked) [PT-078] |  | 46.3 |
| CCOC(=O)C1=C(C)Nc2nnnn2C1c1sccc1-c1ccc(C(=O)O)cc1 (centres unmarked) [PT-292, 4-(2-(6-(ethoxycarbonyl)-5-methyl-4,7-dihydrotetrazolo[1,5-a]pyrimidin-7-yl)thiophen-3-yl)benzoic acid] | 18.7 |  |
| CC1=C(C(=O)OCc2ccccc2)C(c2ccccc2-c2ccc([N+](=O)[O-])cc2)n2nnnc2N1 (centres unmarked) [PT-361, benzyl 5-methyl-7-(4′-nitrobiphenyl-2-yl)-4,7-dihydrotetrazolo[1,5-a]pyrimidine-6-carboxylate] | 41 |  |
| COC(=O)C1=C(C)Nc2nnnn2C1c1c(Br)sc2ccc(Cl)cc12 (centres unmarked) [PT-517, methyl 7-(2-bromo-5-chlorobenzo[b]thiophen-3-yl)-5-methyl-4,7-dihydrotetrazolo[1,5-a]pyrimidine-6-carboxylate] | 43.3 |  |
| CCOC(=O)C1=C(C)Nc2nnnn2C1c1cccc(C2C(C(=O)OCC)=C(C)Nc3nnnn32)c1 (centres unmarked) [PT-202, diethyl 7,7′-(1,3-phenylene)bis(5-methyl-4,7-dihydrotetrazolo[1,5-a]pyrimidine-6-carboxylate)] | 9.7 |  |
| CCOC(=O)C1=C(C)NC(C)=C(C(=O)OCC)C1c1ccc(CC)o1 [PT-121, diethyl 4-(5-ethylfuran-2-yl)-2,6-dimethyl-1,4-dihydropyridine-3,5-dicarboxylate] | 54.8 |  |
| CC1=C(C(=O)OCc2ccc(-c3nnn[nH]3)cc2)C(c2cccc3ccccc23)n2nnnc2N1 (centres unmarked) [PT-060, 4-(1H-tetrazol-5-yl)benzyl 5-methyl-7-(naphthalen-1-yl)-4,7-dihydrotetrazolo[1,5-a]pyrimidine-6-carboxylate] | 5.6 |  |
| CCOC(=O)C1=C(C)NC(C)=C(C(=O)OCC)C1c1ccc(OC)cc1OC [PT-429, diethyl 4-(2,4-dimethoxyphenyl)-2,6-dimethyl-1,4-dihydropyridine-3,5-dicarboxylate] | 14.9 |  |
| O=C1CCCC2=C1C(c1cccc3ccccc13)n1nnnc1N2 (centres unmarked) [PT-072, 9-(naphthalen-1-yl)-5,6,7,9-tetrahydrotetrazolo[5,1-b]quinazolin-8(4H)-one] | -0.9 |  |
| Cc1n[nH]c2c1C(c1cccc3ccccc13)C1=C(COC1=O)N2 (centres unmarked) [PT-081, 3-methyl-4-(naphthalen-1-yl)-7,8-dihydro-1H-furo[3,4-e]pyrazolo[3,4-b]pyridin-5(4H)-one] | 16.6 |  |
| CC1=C(C(=O)OCc2ccccc2)C(c2cccc3cccnc23)n2nnnc2N1 (centres unmarked) [PT-037, benzyl 5-methyl-7-(quinolin-8-yl)-4,7-dihydrotetrazolo[1,5-a]pyrimidine-6-carboxylate] | 34.4 |  |
| CC1=C(C(=O)NNC(=O)Cc2ccccc2)C(c2cccc3ccccc23)n2nnnc2N1 (centres unmarked) [PT-309, 5-methyl-7-(naphthalen-1-yl)-N′-(2-phenylacetyl)-4,7-dihydrotetrazolo[1,5-a]pyrimidine-6-carbohydrazide] | 8.2 |  |
| CC1=C(C(=O)OCc2ccccc2)C(c2ccccc2-c2ccccc2C(N)=O)n2nnnc2N1 (centres unmarked) [PT-388, benzyl 7-(2′-carbamoylbiphenyl-2-yl)-5-methyl-4,7-dihydrotetrazolo[1,5-a]pyrimidine-6-carboxylate] | 2.7 |  |
| CC1=C(C(=O)OCc2ccccc2)C(c2ccsc2B(O)O)n2nnnc2N1 (centres unmarked) [PT-277, 3-(6-(benzyloxycarbonyl)-5-methyl-4,7-dihydrotetrazolo[1,5-a]pyrimidin-7-yl)thiophen-2-ylboronic acid] | 18 |  |
| CC1=C(C(=O)OCc2ccccc2)[C@@H](c2ccccc2-c2ccc(C#N)cc2)n2nnnc2N1 [PT-243, (R)-benzyl 7-(4′-cyanobiphenyl-2-yl)-5-methyl-4,7-dihydrotetrazolo[1,5-a]pyrimidine-6-carboxylate] | 91.5 |  |
| CC1=C(C(=O)OCc2ccccc2)C(c2ccccc2N2CCOCC2)n2nnnc2N1 (centres unmarked) [PT-345, benzyl 5-methyl-7-(2-morpholinophenyl)-4,7-dihydrotetrazolo[1,5-a]pyrimidine-6-carboxylate] | 36.7 |  |
| CC1=C(C(=O)OCc2ccccc2)C(c2ccccc2-c2cccc(C(=O)O)c2)C2=C(CCCC2=O)N1 (centres unmarked) [PT-248, 2′-(3-(benzyloxycarbonyl)-2-methyl-5-oxo-1,4,5,6,7,8-hexahydroquinolin-4-yl)biphenyl-3-carboxylic acid] | 27.2 |  |

— patent US20090012103A1, “SUBSTITUTED HETEROCYCLIC COMPOUNDS” (priority 2007, published 2009)
